Assay results taken from patent publication US4585773A, “Isoindolinyl-alkyl-piperazines” (Bristol-Myers Company, priority 1984, dated 1986).

Tests used:
[1] = system: DOCA-salt Hypertensive Rat; assay: antihypertensive activity, DOCA-salt Hypertensive Rat (Table II); assay type: in vivo; conditions: for ΔBP 4 hours / ΔHR 4 hours: DOCA
Method: DOCA-salt Hypertensive Rat
Male rats initially weighing 80-100 g, are made hypertensive by surgically implanting two 50 mg pellets of deoxycorticosterone acetate (DOCA) under the skin of the abdomen of each rat and providing 1% saline ad libitum. After three weeks, the 1% saline is replaced with distilled water. One week later, animals are anesthetized with methoxyflurane and a catheter advanced into the aorta via the left common corotid artery to record mean arterial blood pressure (MABP) and heart rate. The heparin-filled catheter is passed beneath the skin and exteriorized behind the head. Two days later, MABP and heart rate are determined before and four hours after oral administration of vehicle (0.25% Methocel in 0.9% saline) or test compound suspended in vehicle at a dose volume equivalent to 5 ml/kg.
Testing was carried out on the compounds of Examples I-XII for antihypertensive activity. In the case of all the compounds testing was carried out on the Spontaneously Hypertensive rat as described hereinbefore. In the case of the compounds of Examples I-IV testing was also carried out on the DOCA-salt Hypertensive Rat. The compound of Example I was tested as its monochloride 2-propanolate hydrate, i.e. as C22 H27 ClN4 O4 S.HCl.0.2(CH3)2 CHOH.0.15H2 O in Tests 1-5; and as the 3/4 mole hydrochloride, i.e. C22 H27 ClN4 O4 S: 3/4 HCl in Tests 3a, 4a, 5a-5d. Test results are set forth in Table II below wherein SHR stands for Spontaneously Hypertensive rat, DOCA stands for DOCA-salt Hypertensive Rat, ΔBP stands for the change in systolic blood pressure in mm Hg, ΔHR stands for the change in mean heart rate in beats per minute and the times set forth are the times after dosing. A peak change in ΔBP of more than 20 is considered as indicating activity.

[2] = system: α blocking activity (norepinephrine); assay: in vivo α blocking activity, norepinephrine (NE) as α-agonist (Table III); parameters: species or system rat; conditions: ED50 after/before drug
Method: In this example the compounds of Examples I (modified), II, III, V, VI, VII, VIII, IX and XI were tested in rats for in vivo α blocking activity according to methodology described at page 312 of Deitchman, et al., Journal of Pharmacological Methods, 3, 311-321 (1980). In this test phenylephrine (PE below) or norepinephrine (NE below) was administered as an α-agonist to the rats before and after dosing with the test drug and the average interpolated dose or PE/NE effecting a 50 mm Hg increase in mean arterial blood pressure was determined. Table III below records the results. In such Table, ED50 stands for such average interpolated dose and Average Dose Shift stands for the average ratio of ED50 after drug administration to ED50 before drug administration. The compound of Example I was tested as its monochloride 2-propanolate hydrate, i.e. as C22 H27 ClN4 O4 S.HCl 0.2(CH3)2 CHOH.0.15H2 O in Tests 1-5 and as the 3/4 mole hydrochloride, i.e. C22 H27 ClN 4 O4 S.3/4HCL in Tests 2a and 3a. The route was intravenous except in the case of the runs of Test Nos. 2a, 3, 3a, 26-29 the route was oral.

[3] = 0.3 mg/kg oral, as 3/4 mole hydrochloride
[4] = 3.0 mg/kg oral, as 3/4 mole hydrochloride
[5] = 30 mg/kg oral, as 3/4 mole hydrochloride
[6] = 100 mg/kg oral, as 3/4 mole hydrochloride

Compound | antihypertensive activity (in words) ([1]; DOCA-hypertensive rat) | ΔBP 4 hours [1, 3] | ΔHR 4 hours [1, 3] | ΔBP 4 hours [1, 4] | ΔHR 4 hours [1, 4] | ΔBP 4 hours ([1]; 30 mg/kg oral) | ΔHR 4 hours ([1]; 30 mg/kg oral) | ΔBP 4 hours [1, 5] | ΔHR 4 hours [1, 5] | ΔBP 4 hours [1, 6] | ΔHR 4 hours [1, 6] | Average Dose Shift ([2]; dose 0.3, intravenous) | Average Dose Shift ([2]; dose 1.0, intravenous)
COc1ccccc1N1CCN(CCCN2Cc3cc(Cl)c(S(N)(=O)=O)cc3C2=O)CC1 [Example I, 6-chloro-2,3-dihydro-2-[3-[4-(2-methoxyphenyl)-1-piperazinyl]propyl]-3-oxo-1H-isoindole-5-sulfonamide] | demonstrates activity in the DOCA-hypertensive rat | -14 ± 5 mm Hg | -8 ± 20 beats per minute | -15 ± 6 mm Hg | -6 ± 24 beats per minute | -49 ± 9 mm Hg | 59 ± 28 beats per minute | -53 ± 9 mm Hg | 53 ± 26 beats per minute | -75 ± 3 mm Hg | 23 ± 32 beats per minute | 3 ± 0.3 | 11 ± 1
COc1ccccc1N1CCN(CCN2Cc3cc(Cl)c(S(N)(=O)=O)cc3C2=O)CC1 [Example III, 6-Chloro-2,3-dihydro-2-[2-[4-(2-methoxyphenyl)-1-piperazinyl]ethyl]-3-oxo-1H-isoindole-5-sulfonamide] | – | – | – | – | – | -62 ± 13 mm Hg | 63 ± 32 beats per minute | – | – | – | – | – | –
